The source of these data is paper doi:10.1101/2022.07.25.501481v1 (biorxiv, 2022).

The target in this assay is T1, BT4193 (Bacteroides thetaiotaomicron, UniProt Q8A028).
T1 sequence (Q8A028 20-736): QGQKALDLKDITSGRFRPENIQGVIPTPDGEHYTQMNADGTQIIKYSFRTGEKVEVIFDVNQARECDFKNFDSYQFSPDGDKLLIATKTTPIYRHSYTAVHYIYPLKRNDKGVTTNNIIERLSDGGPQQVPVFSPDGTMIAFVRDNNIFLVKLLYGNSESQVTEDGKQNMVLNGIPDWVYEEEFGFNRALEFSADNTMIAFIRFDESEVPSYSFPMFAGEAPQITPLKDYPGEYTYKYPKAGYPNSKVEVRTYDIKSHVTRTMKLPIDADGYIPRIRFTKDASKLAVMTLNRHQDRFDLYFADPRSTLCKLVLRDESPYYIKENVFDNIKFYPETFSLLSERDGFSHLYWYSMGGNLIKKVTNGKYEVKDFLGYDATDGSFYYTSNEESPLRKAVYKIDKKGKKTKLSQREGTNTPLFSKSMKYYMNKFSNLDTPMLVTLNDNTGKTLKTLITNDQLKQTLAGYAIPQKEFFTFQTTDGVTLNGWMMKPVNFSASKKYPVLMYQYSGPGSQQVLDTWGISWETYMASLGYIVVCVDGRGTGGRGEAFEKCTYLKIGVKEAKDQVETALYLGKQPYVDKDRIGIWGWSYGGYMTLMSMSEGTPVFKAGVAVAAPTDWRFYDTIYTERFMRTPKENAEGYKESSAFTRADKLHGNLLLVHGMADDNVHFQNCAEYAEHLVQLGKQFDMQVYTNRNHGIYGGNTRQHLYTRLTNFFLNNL
Briefly: GP-AMC cleavage fluorescence, dose-response four-parameter fit. The format is biochemical.

Take `CC#CCn1c(N2CCC[C@@H](N)C2)nc2c1c(=O)n(Cc1nc(C)c3ccccc3n1)c(=O)n2C` [linagliptin]: the IC50 (usually the concentration that gives 50% inhibition) came out at 445 ± 23 nM. In the case of `N#C[C@@H]1C[C@@H]2C[C@@H]2N1C(=O)[C@@H](N)C12CC3CC(CC(O)(C3)C1)C2` [saxagliptin] it was 10.3 ± 0.7 nM; in that of `N[C@@H](CC(=O)N1CCn2c(nnc2C(F)(F)F)C1)Cc1cc(F)c(F)cc1F` [sitagliptin], 2150 ± 162 nM.

As for `CC(C)[C@H](N)C(=O)N1CCC[C@H]1B(O)O` [talabostat], the midpoint of inhibition, the IC50, lay at 12.4 ± 0.1 nM.
